Measured values as given in ChEMBL document CHEMBL1201862, “PubChem BioAssay data set” (2004).
The source made the active and inactive calls.

What was measured:
[1] = A small molecule screen for inhibitors of the PhoP region in Salmonella typhi (3) using purified and synthesized compounds. [Related pubchem assays (depositor defined):AID1850, AID1864, AID1985, AID2252, AID2384, AID2612, AID2811, AID449743, AID463179]; type: functional
[2] = biological target: T1, Dual specificity protein phosphatase 6 (Rattus norvegicus, UniProt Q64346)
T1 sequence (Q64346 whole entry): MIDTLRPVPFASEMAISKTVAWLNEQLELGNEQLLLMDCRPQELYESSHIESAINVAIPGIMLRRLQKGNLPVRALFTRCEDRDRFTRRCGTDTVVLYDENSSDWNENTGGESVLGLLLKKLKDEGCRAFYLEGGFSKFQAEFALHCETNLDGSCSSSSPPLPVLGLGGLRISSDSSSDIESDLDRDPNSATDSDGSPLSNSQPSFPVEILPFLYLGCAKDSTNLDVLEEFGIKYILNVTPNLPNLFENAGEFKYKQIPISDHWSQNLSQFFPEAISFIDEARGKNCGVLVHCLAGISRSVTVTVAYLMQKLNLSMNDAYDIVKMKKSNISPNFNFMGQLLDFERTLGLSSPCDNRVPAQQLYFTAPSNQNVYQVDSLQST

[3] = system: HeLa; assay: viability loss in HeLa cells – cell-based, 24 h, cherry-picked samples, cytotoxicity control, dose response (AID 504726); type: functional; details: Homo sapiens;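 further: potency for cytotoxicity as loss of luminescence signal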
[4] = biological target: Glyceraldehyde-3-phosphate dehydrogenase (Homo sapiens, UniProt P04406)
Sequence of Glyceraldehyde-3-phosphate dehydrogenase (P04406 whole entry): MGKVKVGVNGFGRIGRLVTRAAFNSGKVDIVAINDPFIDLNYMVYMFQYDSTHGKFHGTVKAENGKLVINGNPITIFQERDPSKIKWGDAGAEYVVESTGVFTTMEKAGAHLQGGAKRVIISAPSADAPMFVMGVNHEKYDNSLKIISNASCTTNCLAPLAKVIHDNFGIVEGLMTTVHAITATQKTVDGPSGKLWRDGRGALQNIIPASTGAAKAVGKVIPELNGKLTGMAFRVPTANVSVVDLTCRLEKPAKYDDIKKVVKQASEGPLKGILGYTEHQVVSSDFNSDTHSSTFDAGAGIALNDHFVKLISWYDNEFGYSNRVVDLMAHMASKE

[5] = biological target: T2, Cysteine protease ATG4B (Homo sapiens, UniProt Q9Y4P1); type: functional;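 further: Fluorescence-based dose-response confirmation assay measuring inhibition of ATG4B activity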
T2 sequence (Q9Y4P1 whole entry): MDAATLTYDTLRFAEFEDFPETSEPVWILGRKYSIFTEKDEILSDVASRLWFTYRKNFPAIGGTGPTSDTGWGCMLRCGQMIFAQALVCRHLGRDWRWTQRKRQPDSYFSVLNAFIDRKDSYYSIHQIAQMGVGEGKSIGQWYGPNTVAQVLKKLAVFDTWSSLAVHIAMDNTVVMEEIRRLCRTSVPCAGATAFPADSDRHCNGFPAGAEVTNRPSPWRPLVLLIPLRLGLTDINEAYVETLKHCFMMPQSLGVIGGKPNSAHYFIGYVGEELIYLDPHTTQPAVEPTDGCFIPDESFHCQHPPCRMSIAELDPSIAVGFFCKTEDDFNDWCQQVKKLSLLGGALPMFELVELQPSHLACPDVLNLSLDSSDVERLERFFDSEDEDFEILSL

[6] = biological target: T3, Zinc finger protein mex-5 (Caenorhabditis elegans, UniProt Q9XUB2); assay: potency of MEX-5 RNA-binding blockers – biochemical, C. elegans, fluorescence polarization, dose response (AID 1960)
T3 sequence (Q9XUB2 whole entry): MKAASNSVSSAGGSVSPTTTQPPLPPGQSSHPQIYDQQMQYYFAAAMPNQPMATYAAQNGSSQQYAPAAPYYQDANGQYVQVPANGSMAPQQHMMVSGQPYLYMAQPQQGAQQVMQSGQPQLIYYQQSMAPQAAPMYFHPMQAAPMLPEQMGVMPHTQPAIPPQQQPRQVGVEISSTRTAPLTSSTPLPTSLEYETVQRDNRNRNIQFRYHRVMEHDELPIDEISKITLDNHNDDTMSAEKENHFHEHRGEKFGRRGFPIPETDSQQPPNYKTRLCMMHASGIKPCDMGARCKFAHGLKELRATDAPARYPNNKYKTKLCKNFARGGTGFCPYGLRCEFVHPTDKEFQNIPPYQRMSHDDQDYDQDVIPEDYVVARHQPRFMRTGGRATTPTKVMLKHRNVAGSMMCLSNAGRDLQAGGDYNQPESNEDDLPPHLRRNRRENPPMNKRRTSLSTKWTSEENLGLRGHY

[7] = biological target: Phospholipase A2 (Homo sapiens, UniProt P04054); type: functional;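 further: confirmatory dose-response counterscreen on phospholipase A2, testing hits that came from an ultra-high-throughput screen for ATG4B inhibitors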
Sequence of Phospholipase A2 (P04054 whole entry): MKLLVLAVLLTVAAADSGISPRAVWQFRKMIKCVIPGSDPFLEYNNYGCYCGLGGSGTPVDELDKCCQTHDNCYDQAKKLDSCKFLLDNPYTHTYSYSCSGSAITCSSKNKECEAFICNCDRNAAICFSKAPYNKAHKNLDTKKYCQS

[8] = biological target: ORF 73 (Human herpesvirus 8, UniProt O40947); assay: KSHV LANA DNA-binding disruption – biochemical, fluorescence polarization, cherry-picked samples, dose response (AID 504725); design: species or system Human gammaherpesvirus 8;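 further: fluorescence polarization of a labeled DNA duplex reporting LANA DNA binding; potency is for inhibitors that block LANA binding to the DNA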
Sequence of ORF 73 (O40947 whole entry): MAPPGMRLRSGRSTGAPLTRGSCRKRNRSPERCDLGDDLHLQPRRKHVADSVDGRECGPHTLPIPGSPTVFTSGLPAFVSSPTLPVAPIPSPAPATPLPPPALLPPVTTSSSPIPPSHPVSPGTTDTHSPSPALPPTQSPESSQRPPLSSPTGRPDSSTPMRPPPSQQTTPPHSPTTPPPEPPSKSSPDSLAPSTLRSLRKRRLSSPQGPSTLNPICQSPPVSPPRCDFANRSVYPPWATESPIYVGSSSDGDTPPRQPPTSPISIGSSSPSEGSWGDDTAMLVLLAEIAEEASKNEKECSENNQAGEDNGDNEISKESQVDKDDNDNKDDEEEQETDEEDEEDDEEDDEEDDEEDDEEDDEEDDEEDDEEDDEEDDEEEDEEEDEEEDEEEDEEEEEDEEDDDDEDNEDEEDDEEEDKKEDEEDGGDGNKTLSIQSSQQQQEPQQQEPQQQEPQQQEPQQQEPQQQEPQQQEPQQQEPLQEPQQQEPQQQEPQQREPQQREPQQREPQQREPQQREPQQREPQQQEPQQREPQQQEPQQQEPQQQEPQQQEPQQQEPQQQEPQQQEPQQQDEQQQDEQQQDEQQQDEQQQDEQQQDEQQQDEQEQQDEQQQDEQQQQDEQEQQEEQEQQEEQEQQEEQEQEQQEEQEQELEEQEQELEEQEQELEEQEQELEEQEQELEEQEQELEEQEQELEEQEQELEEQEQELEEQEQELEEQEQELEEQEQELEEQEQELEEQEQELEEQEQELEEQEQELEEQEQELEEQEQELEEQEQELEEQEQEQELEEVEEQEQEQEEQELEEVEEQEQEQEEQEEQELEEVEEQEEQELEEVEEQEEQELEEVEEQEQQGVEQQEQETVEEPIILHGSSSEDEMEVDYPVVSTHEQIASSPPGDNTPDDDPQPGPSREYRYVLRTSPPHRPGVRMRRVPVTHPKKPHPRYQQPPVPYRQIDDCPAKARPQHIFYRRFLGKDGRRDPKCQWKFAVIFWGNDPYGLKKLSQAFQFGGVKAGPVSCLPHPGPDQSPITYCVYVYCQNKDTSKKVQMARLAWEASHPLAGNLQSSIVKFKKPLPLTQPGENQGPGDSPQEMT

[9] = biological target: Heat shock 70 kDa protein 1A (Homo sapiens, UniProt P0DMV8); assay: inhibition of Hsp70 binding activity – biochemical, fluorescence polarization, SAR follow-up (AID 1072)
Sequence of Heat shock 70 kDa protein 1A (P0DMV8 whole entry): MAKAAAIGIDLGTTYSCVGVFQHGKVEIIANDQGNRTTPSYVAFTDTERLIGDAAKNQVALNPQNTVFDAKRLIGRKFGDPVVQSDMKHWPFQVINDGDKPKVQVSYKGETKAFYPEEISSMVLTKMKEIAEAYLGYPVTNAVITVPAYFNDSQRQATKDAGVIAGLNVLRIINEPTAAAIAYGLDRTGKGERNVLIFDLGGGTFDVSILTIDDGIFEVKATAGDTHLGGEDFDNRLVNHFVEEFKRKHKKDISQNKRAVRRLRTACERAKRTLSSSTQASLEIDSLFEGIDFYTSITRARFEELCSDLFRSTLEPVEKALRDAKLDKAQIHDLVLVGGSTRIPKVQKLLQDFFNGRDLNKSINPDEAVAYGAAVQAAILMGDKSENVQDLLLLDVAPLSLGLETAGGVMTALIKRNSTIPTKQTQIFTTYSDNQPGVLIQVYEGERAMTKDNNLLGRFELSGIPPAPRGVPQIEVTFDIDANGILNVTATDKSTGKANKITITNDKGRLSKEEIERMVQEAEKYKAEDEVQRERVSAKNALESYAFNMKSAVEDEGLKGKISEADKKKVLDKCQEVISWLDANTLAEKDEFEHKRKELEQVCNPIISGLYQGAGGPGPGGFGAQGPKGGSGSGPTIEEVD

[10] = biological target: T1, Dual specificity protein phosphatase 6; type: functional
[11] = biological target: T4, Tyrosine-protein phosphatase non-receptor type 7 (Homo sapiens, UniProt P35236); type: functional
T4 sequence (P35236 whole entry): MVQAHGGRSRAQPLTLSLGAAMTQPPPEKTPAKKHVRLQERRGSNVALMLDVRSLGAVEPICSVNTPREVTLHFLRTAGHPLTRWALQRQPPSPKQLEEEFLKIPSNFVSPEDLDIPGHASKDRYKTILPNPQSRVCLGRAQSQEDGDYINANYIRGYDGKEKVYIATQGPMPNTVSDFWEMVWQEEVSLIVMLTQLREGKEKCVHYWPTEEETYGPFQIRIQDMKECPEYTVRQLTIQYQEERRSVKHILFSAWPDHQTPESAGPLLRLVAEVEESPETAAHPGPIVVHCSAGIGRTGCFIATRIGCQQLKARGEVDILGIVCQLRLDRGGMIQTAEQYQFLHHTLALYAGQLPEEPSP

[12] = biological target: Heat shock cognate 71 kDa protein (Homo sapiens, UniProt P11142); assay: In Vitro Hsc70 Dose Response Fluorescence Polarization Assay. [Related pubchem assays: 1072 ]
Sequence of Heat shock cognate 71 kDa protein (P11142 whole entry): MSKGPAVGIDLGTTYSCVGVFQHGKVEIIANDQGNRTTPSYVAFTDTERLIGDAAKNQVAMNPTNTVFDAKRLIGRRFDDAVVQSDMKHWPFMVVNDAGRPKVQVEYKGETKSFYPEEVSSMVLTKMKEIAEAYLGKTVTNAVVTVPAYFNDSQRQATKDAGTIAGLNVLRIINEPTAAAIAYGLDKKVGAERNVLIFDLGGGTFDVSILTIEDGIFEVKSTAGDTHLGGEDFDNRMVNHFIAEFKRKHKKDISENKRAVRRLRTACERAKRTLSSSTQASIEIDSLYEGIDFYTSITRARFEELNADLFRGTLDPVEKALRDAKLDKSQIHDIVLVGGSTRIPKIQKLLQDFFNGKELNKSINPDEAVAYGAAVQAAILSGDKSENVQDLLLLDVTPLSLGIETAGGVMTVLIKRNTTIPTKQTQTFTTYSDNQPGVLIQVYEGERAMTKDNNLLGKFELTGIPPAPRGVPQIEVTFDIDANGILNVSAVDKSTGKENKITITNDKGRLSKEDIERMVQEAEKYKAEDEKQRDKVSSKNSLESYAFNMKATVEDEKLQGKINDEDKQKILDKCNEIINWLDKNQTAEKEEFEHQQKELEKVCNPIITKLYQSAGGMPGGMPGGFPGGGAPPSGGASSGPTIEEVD

[13] = system: Vero; assay: viability of Vero cells under compound – cytotoxicity control for flavivirus capping enzyme inhibitors (AID 588742); type: functional; details: Chlorocebus sabaeus
[14] = biological target: T5, RNA-binding protein pos-1 (Caenorhabditis elegans, UniProt G5EF15); assay: disruptors of C. elegans POS-1 RNA interaction – biochemical, fluorescence polarization, dose response (AID 1964);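 further: purified POS-1 fused to maltose binding protein made in E. coli; potency of compounds blocking POS-1 binding to fluorescent RNA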
T5 sequence (G5EF15 whole entry): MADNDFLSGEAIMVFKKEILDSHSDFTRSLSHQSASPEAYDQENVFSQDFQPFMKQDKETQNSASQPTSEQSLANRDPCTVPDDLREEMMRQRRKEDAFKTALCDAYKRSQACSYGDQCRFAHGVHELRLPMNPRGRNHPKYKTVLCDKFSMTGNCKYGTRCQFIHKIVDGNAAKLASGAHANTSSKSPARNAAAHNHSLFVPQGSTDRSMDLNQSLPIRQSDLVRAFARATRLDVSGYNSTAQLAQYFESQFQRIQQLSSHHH

[15] = system: HT-1080; assay: HT1080 cell viability loss – fluorescence readout (AID 620); type: functional, cell-based; details: Homo sapiens
[16] = viability loss of HPDE-C7K cells – cell-based, fluorescence, HTS, primary screen (AID 431); type: functional; details: Homo sapiens
[17] = biological target: Luciferin 4-monooxygenase (Photinus pyralis, UniProt P08659); assay: Counter Screen for Luciferase-based Assay Positives. [Related pubchem assays: 620, 618, 411 ]
Sequence of Luciferin 4-monooxygenase (P08659 whole entry): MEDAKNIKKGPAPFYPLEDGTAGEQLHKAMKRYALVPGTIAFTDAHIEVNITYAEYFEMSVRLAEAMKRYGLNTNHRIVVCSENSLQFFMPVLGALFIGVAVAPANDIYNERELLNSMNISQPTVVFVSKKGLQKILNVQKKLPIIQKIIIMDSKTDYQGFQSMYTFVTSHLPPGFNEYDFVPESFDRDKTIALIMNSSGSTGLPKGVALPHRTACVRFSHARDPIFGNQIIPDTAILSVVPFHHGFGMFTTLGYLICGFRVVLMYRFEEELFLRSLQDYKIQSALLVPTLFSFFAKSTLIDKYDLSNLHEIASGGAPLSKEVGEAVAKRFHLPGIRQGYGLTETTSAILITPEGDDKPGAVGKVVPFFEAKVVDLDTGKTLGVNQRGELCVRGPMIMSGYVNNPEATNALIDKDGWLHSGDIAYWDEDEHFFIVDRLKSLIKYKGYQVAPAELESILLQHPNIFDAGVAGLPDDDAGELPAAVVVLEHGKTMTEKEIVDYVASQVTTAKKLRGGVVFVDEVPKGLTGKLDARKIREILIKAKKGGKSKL

[18] = HPDE-C7 pancreatic duct cell viability loss – fluorescence, HTS (AID 430); type: functional, cell-based; details: Homo sapiens
[19] = biological target: T6, Calpain-2 catalytic subunit (Sus scrofa, UniProt P43367); assay: m-calpain protease blockers, concentration series – biochemical, fluorogenic peptide substrate, dose response (AID 1420); type: functional
T6 sequence (P43367 whole entry): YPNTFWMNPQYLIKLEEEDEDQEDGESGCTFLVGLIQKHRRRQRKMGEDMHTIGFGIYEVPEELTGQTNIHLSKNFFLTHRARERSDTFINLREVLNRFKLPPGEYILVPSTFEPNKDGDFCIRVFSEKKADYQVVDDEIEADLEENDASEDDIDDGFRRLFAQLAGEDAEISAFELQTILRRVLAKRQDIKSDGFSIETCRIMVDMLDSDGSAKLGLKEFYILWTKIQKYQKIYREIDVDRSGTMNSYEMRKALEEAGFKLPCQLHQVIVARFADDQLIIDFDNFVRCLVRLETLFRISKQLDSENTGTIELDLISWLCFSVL

[20] = biological target: Hexokinase HKDC1 (Homo sapiens, UniProt Q2TB90); assay: inhibition of HKDC1 glucose phosphorylation – biochemical, W721R variant, dose response (AID 504729); type: functional
Sequence of Hexokinase HKDC1 (Q2TB90 whole entry): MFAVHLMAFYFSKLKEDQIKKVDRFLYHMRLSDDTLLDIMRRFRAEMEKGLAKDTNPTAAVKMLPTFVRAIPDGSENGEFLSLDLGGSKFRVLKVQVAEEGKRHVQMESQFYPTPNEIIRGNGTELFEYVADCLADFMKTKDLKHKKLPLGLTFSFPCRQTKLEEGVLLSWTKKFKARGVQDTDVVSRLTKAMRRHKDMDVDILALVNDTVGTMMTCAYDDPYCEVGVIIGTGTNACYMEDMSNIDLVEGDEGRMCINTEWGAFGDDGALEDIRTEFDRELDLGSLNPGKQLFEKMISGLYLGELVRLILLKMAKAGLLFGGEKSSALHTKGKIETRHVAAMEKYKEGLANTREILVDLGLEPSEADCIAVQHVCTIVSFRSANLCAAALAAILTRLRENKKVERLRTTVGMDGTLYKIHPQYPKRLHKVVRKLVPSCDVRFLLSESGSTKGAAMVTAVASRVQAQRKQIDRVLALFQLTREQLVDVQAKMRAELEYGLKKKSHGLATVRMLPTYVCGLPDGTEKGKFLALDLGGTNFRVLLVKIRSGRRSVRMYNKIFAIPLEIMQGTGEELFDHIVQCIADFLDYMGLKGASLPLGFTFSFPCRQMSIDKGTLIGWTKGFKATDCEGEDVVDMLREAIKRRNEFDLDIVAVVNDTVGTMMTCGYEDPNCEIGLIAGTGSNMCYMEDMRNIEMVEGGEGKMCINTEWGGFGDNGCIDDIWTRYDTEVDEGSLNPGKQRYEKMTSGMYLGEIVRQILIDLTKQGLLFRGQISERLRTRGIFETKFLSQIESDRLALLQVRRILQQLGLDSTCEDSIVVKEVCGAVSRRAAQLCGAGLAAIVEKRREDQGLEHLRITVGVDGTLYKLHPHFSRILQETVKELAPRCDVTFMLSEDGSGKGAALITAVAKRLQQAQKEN

[21] = biological target: T7, Alkaline phosphatase, tissue-nonspecific isozyme (Homo sapiens, UniProt P05186)
T7 sequence (P05186 whole entry): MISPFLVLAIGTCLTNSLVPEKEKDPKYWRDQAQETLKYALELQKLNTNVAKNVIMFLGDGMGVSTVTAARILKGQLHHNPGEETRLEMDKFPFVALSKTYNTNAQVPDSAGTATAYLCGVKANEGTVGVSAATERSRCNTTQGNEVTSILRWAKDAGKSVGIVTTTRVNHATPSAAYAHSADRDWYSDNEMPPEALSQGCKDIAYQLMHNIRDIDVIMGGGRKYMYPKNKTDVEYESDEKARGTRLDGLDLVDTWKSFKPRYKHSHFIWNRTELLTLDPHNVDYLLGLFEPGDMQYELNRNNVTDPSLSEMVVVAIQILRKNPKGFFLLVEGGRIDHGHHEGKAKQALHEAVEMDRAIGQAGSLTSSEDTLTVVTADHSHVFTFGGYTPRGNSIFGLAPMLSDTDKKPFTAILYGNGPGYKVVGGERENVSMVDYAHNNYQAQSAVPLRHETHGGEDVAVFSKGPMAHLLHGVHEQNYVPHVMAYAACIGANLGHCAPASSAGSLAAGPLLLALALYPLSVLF

[22] = toxicity toward HepG2 liver cells – cell-based, plate reader, cherry-pick, antagonist series, cytotoxicity control, dose response (AID 743416); type: functional
[23] = blockers of bursicon-stimulated LGR2 cAMP reporter – cell-based, HEK293, CRE-luciferase reporter, cherry pick, set 2, dose response (AID 743343); type: functional;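 further: transfected cells were stimulated with diluted bursicon conditioned medium after compound addition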
[24] = blockade of melanocortin 4 receptor signaling – cell-based, plate reader, cherry pick, counter-screen for LGR2 antagonist project, dose response (AID 743444); type: functional;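 further: transfected HEK 293 cells stimulated with alpha-MSH peptide; potency of inhibitors of the alpha-MSH evoked signal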
[25] = A549 cell cytotoxicity, dose response, cytotoxicity control, plate reader, cherry-pick, antagonist series (AID 743412); type: functional, cell-based
[26] = Luminescence-based counterscreen assay for KLF5 inhibitors: dose response cell-based high throughput screening assay to identify cytotoxic compounds using the IEC-6 intestinal epithelial cell line. [Related pubchem assays: 1700 (Primary screen.), 1834 (Confirmation screen.), 1858 (Summary AID.), 1905 (Counterscreen.)]; type: functional
[27] = viability loss in HEK293 cells – cell-based, plate reader, cherry-picked samples, cytotoxicity control, dose response (AID 743446); type: functional
[28] = biological target: Photoreceptor-specific nuclear receptor (Homo sapiens, UniProt Q9Y5X4); type: functional;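 further: potency for compounds that break the NR2E3 corepressor complex and count as activators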
[29] = biological target: Peroxisome proliferator-activated receptor gamma/Nuclear receptor coactivator 1 (Homo sapiens, UniProt P37231); assay: TR-FRET dose response biochemical High Throughput Screening assay for agonists of the steroid receptor coactivator 1 (SRC-1) recruitment by the peroxisome proliferator-activated receptor gamma (PPAR gamma): non-selective agonists. [Related pubchem assays (depositor defined):AID1300, AID1808, AID504735, AID631]; type: protein assay
[30] = biological target: Cytochrome P450 2C19 (Homo sapiens, UniProt P33261); assay: Cytochrome panel assay with activity outcomes. Panel member name: p450-cyp2c19 Compounds with AC50 equal or less than 10 uM are considered active; type: functional; details: read-out: AC50
Sequence of Cytochrome P450 2C19 (P33261 whole entry): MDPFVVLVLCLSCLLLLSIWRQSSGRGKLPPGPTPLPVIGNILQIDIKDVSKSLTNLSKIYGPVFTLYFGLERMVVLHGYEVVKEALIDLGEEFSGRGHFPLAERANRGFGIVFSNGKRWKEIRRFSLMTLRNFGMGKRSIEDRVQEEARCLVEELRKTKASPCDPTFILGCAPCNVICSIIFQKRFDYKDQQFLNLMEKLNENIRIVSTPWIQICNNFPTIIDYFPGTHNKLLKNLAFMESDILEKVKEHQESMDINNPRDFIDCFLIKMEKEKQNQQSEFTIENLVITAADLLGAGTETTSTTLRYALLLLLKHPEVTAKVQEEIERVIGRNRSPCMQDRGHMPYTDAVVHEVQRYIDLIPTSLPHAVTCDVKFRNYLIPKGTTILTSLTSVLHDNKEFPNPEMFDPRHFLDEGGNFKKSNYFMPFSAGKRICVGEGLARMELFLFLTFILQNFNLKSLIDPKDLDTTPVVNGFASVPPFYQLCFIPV

[31] = biological target: Peroxisome proliferator-activated receptor gamma/Nuclear receptor corepressor 2 (Homo sapiens, UniProt P37231+Q9Y618); type: functional
[32] = biological target: Peroxisome proliferator-activated receptor gamma/Nuclear receptor coactivator 2 (Homo sapiens, UniProt P37231); assay: TR-FRET dose response biochemical High Throughput Screening assay for agonists of the steroid receptor coactivator 2 (SRC-2) recruitment by the peroxisome proliferator-activated receptor gamma (PPAR gamma): non-selective agonists. [Related pubchem assays: 1297, 1032 ]; type: functional
[33] = biological target: Peroxisome proliferator-activated receptor gamma/Nuclear receptor coactivator 3 (Homo sapiens, UniProt P37231); assay: TR-FRET dose response biochemical High Throughput Screening assay for agonists of the steroid receptor coactivator 3 (SRC-3) recruitment by the peroxisome proliferator-activated receptor gamma (PPAR gamma): non-selective agonists. [Related pubchem assays: 1301 (Confirmation screen.), 1048 (Primary screen.)]; type: functional

Cc1cccc(NC(=O)N2CCCN(Cc3ccccc3F)C2)c1
IC50 [1]: > 150 µM (active)

O=C(O)C1Nc2ccc(Br)cc2C2C=CCC12 (stereo not given)
IC50 [2]: 12.8 µM (active)
AC50 [3]: 106 µM (active)
IC50 [4]: 28.7 µM (active)
IC50 [5]: 3.94 µM (active)
EC50 [6]: 6.32 µM (active)
IC50 [7]: 8.24 µM (active)
AC50 [8]: 29.2 µM (active)
IC50 [9]: 3.24 µM (active)
IC50 [10]: 12.3 µM (active)
IC50 [11]: 1.63 µM (active)
IC50 [12]: > 100 µM (not active)
CC50 [13]: > 40 µM (active)
EC50 [14]: 9.81 µM (active)

Cc1c(NC(=O)c2coc(=O)c(Br)c2)c(=O)n(-c2ccccc2)n1C
EC50 [15]: 15 µM (active)
EC50 [16]: 7.23 µM (active)
EC50 [6]: 16.8 µM (active)
EC50 [17]: 0.61 µM (active)
EC50 [14]: 8.99 µM (active)
EC50 [18]: 7.2 µM (active)

Cc1cc(C)n2nc(SCc3nnc(SCc4ccccc4Cl)s3)nc2n1
IC50 [19]: 9.87 µM (not active)
IC50 [20]: 18.8 µM (active)

Cn1nc(CC(=O)NC2CCCCCCCCCCC2)c2ccccc2c1=O
EC50 [21]: 65 µM (not active)

CCc1ccc(C(=O)Nc2nc3ccccc3[nH]2)cc1
AC50 [22]: 29.3 µM (active)
AC50 [23]: 1.27 µM (active)
AC50 [24]: 1.45 µM (active)
AC50 [25]: 31.8 µM (active)
IC50 [26]: 22.1 µM (not active)
AC50 [27]: 28.4 µM (active)

CN(C)CCN1C(=O)C(O)=C(C(=O)c2cc3ccccc3o2)C1c1cccc(Br)c1 (stereo not given)
IC50 [28]: > 39.8 µM (not active)
EC50 [29]: > 79.4 µM (inactive)
AC50 [30]: 31.6 µM (inconclusive)
IC50 [31]: 2.25 µM (active)
EC50 [32]: > 79.4 µM (not active)
EC50 [33]: > 79.4 µM (not active)
